Values joined by “and” are separate entries in the source; they are usually repeats but may differ in a detail not shown here. Equal values may be shown once. Numbers after ± are expanded uncertainties.
Conditions: Liquid, Ebulliometric method (Recirculating still)

CC(C)O [propan-2-ol]
Conditions | vapor or sublimation pressure
317.07 K | 17.46 ± 0.22 kPa
317.65 K | 17.98 ± 0.22 kPa
318.1 K | 18.39 ± 0.22 kPa
318.73 K | 19.01 ± 0.22 kPa
319.19 K | 19.48 ± 0.23 kPa
319.72 K | 20.03 ± 0.23 kPa
320.19 K | 20.52 ± 0.23 kPa
320.65 K | 21 ± 0.23 kPa
321.11 K | 21.49 ± 0.23 kPa
321.58 K | 22.03 ± 0.23 kPa
322.07 K | 22.55 ± 0.23 kPa
322.47 K | 23.03 ± 0.23 kPa
322.91 K | 23.52 ± 0.23 kPa
323.32 K | 24.02 ± 0.24 kPa
323.71 K | 24.51 ± 0.24 kPa
324.13 K | 25.03 ± 0.24 kPa
324.49 K | 25.48 ± 0.24 kPa
324.94 K | 26.04 ± 0.24 kPa
325.3 K | 26.52 ± 0.24 kPa
325.72 K | 27.08 ± 0.24 kPa
326.18 K | 27.69 ± 0.24 kPa
326.53 K | 28.19 ± 0.24 kPa
326.99 K | 28.83 ± 0.24 kPa
327.46 K | 29.45 ± 0.25 kPa
327.86 K | 30.08 ± 0.25 kPa
328.47 K | 30.96 ± 0.25 kPa
329.06 K | 31.86 ± 0.25 kPa
329.64 K | 32.76 ± 0.26 kPa
330.26 K | 33.77 ± 0.26 kPa
330.73 K | 34.52 ± 0.26 kPa
331.32 K | 35.48 ± 0.26 kPa
331.83 K | 36.37 ± 0.27 kPa
332.44 K | 37.45 ± 0.27 kPa
332.99 K | 38.41 ± 0.27 kPa
333.5 K | 39.33 ± 0.27 kPa
334.1 K | 40.41 ± 0.28 kPa
334.6 K | 41.44 ± 0.28 kPa
335.12 K | 42.44 ± 0.28 kPa
335.64 K | 43.46 ± 0.28 kPa
336.11 K | 44.38 ± 0.29 kPa
336.55 K | 45.32 ± 0.29 kPa
337.07 K | 46.34 ± 0.29 kPa
337.5 K | 47.28 ± 0.3 kPa
337.98 K | 48.35 ± 0.3 kPa
338.45 K | 49.34 ± 0.29 kPa
338.86 K | 50.25 ± 0.3 kPa
339.3 K | 51.26 ± 0.31 kPa
339.72 K | 52.33 ± 0.31 kPa
340.04 K | 53.01 ± 0.3 kPa
340.43 K | 53.94 ± 0.31 kPa
340.89 K | 55.03 ± 0.31 kPa
341.25 K | 55.92 ± 0.31 kPa
341.69 K | 56.96 ± 0.32 kPa
342.09 K | 58.05 ± 0.33 kPa
342.48 K | 59.04 ± 0.33 kPa
342.82 K | 59.93 ± 0.33 kPa
343.2 K | 60.91 ± 0.33 kPa
343.59 K | 61.94 ± 0.34 kPa
343.96 K | 62.98 ± 0.34 kPa
344.32 K | 63.92 ± 0.34 kPa
344.68 K | 64.96 ± 0.35 kPa
345.05 K | 65.97 ± 0.34 kPa
345.35 K | 66.84 ± 0.36 kPa
345.75 K | 68.03 ± 0.36 kPa
346.13 K | 69.14 ± 0.36 kPa
346.46 K | 70.12 ± 0.36 kPa
347.11 K | 72.04 ± 0.37 kPa
347.79 K | 74.18 ± 0.37 kPa
348.37 K | 75.96 ± 0.37 kPa
348.95 K | 77.81 ± 0.38 kPa
349.61 K | 79.96 ± 0.39 kPa
350.08 K | 81.58 ± 0.4 kPa
350.75 K | 83.94 ± 0.4 kPa
351.21 K | 85.47 ± 0.4 kPa
351.69 K | 87.17 ± 0.41 kPa
352.09 K | 88.63 ± 0.41 kPa
352.54 K | 90.24 ± 0.42 kPa
353.16 K | 92.57 ± 0.43 kPa
353.66 K | 94.46 ± 0.43 kPa
354.2 K | 96.49 ± 0.43 kPa
354.59 K | 98.05 ± 0.44 kPa
355.09 K | 100 ± 0.45 kPa and 100.03 ± 0.45 kPa
355.38 K | 101.28 ± 0.45 kPa
355.93 K | 103.44 ± 0.45 kPa
356.4 K | 105.38 ± 0.46 kPa
356.76 K | 106.91 ± 0.47 kPa
357.16 K | 108.63 ± 0.47 kPa
357.52 K | 110.13 ± 0.47 kPa
357.93 K | 111.88 ± 0.49 kPa
358.35 K | 113.79 ± 0.49 kPa
358.65 K | 115.1 ± 0.5 kPa
358.98 K | 116.64 ± 0.5 kPa
359.43 K | 118.64 ± 0.5 kPa
359.77 K | 120.24 ± 0.52 kPa
360.16 K | 122.11 ± 0.52 kPa
360.57 K | 124.03 ± 0.52 kPa
360.9 K | 125.62 ± 0.52 kPa
361.26 K | 127.36 ± 0.52 kPa
361.62 K | 129.08 ± 0.54 kPa
361.98 K | 130.93 ± 0.55 kPa
362.26 K | 132.35 ± 0.54 kPa
362.52 K | 133.65 ± 0.54 kPa

O [water]
Conditions | vapor or sublimation pressure [kPa]
372.81 K | 100 ± 0.65
372.84 K | 100 ± 0.75
